The values that follow come from ChEMBL document CHEMBL1153173, “Oxygenated analogues of UK-396082 as inhibitors of activated thrombin activatable fibrinolysis inhibitor” (Bioorg Med Chem Lett, 2010).

Molecules are shown by their SMILES. pKi: −log10 of the molar value.

One data set has as its target T1, Carboxypeptidase B (Homo sapiens, UniProt P15086).
T1 sequence (P15086 whole entry): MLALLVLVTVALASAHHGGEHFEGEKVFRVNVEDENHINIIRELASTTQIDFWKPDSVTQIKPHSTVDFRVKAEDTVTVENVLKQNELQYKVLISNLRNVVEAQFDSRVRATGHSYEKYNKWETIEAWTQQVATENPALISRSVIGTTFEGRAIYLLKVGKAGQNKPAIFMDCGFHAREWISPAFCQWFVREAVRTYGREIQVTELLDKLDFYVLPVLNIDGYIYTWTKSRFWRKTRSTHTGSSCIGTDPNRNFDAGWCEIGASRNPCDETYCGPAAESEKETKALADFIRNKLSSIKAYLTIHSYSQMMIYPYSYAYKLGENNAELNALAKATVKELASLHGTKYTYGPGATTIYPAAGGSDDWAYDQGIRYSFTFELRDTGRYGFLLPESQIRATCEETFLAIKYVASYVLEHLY
Kind of data set: Inhibition of human pancreatic carboxypeptidase B.
Settings: not given
For the compound `CCCn1cnc(C[C@H](OCCN)C(=O)O)c1`, the pKi was 6.62.

Compound `NCCO[C@@H](Cc1cn(-c2ccccc2)cn1)C(=O)O` had a pKi of 7.57.

The compound `CC(C)(C)c1ccc(-n2cnc(C[C@H](OCCN)C(=O)O)c2)cc1` showed a pKi of 7.31.

`C[C@H](CN)O[C@@H](Cc1cn(-c2ccccn2)cn1)C(=O)O` gave a negative-log Ki (pKi) of 6.58.

Regarding `NCCO[C@@H](Cc1cn(CCC2CCCCC2)cn1)C(=O)O`, the negative logarithm of the Ki (pKi) is 7.57.

In turn, `Cc1ccccc1-n1cnc(CC(OCCN)C(=O)O)c1` (racemic) had a negative logarithm of the Ki (pKi) of 5.57.

The compound `CCCn1cnc(C[C@H](NCCN)C(=O)O)c1` gave a negative-log Ki (pKi) of 5.94.

Compound `CCCn1cnc(C[C@@H](OCCN)C(=O)O)c1` gave a pKi of under 5.00.

The compound `C[C@H](CN)O[C@@H](Cc1cn(-c2ccccc2)cn1)C(=O)O` showed a pKi of 6.62.

Compound `CCCn1cnc(CC(OCCNC)C(=O)O)c1` (racemic) had a negative logarithm of the Ki (pKi) of under 5.00.

`CCCn1cnc(C[C@H](CCCN)C(=O)O)c1` [UK-396,082]: the pKi was 6.69.

Compound `CCCCn1cnc(CC(OCCN)C(=O)O)c1` (racemic) showed a negative logarithm of the Ki (pKi) of 6.44.

System in another data set: not listed separately
In words: Clearance in human at 10 mg/kg, iv. Type of data set: ADME, organism-based. On the set-up: dose 10 mg/kg, route intravenous. Conditions: in vivo.
With `CCCn1cnc(C[C@H](CCCN)C(=O)O)c1` [UK-396,082], the clearance was found to be 1.5 mL/min/kg.

System in another data set: not listed separately
In words: Half life in human at 10 mg/kg, iv. The data set is classed as ADME, organism-based. On the set-up: dose 10 mg/kg, route intravenous. Conditions: in vivo.
For the compound `CCCn1cnc(C[C@H](CCCN)C(=O)O)c1` [UK-396,082], the half-life was 4 h.

System in another data set: not listed separately
Kind of data set: Oral bioavailability in rat at 5 mg/kg. Conditions: in vivo. The data set is classed as ADME, organism-based.
As to `CCCn1cnc(C[C@H](OCCN)C(=O)O)c1`, the bioavailability worked out at 9.8%.

With `CCCn1cnc(C[C@H](CCCN)C(=O)O)c1` [UK-396,082], the bioavailability worked out at 10.6%.

System in another data set: not listed separately
In words: Clearance in rat at 2 mg/kg, iv. Type of data set: ADME, organism-based. Further details: dose 2 mg/kg, route intravenous. To be noted: in vivo.
`CCCn1cnc(C[C@H](OCCN)C(=O)O)c1` came in with a clearance of 13.4 mL/min/kg.

As to `CCCn1cnc(C[C@H](CCCN)C(=O)O)c1` [UK-396,082], the clearance was 10.2 mL/min/kg.

System in a further data set: not listed separately
In words: Volume of distribution in rat at 2 mg/kg, iv. To be noted: in vivo. Further details: dose 2 mg/kg, route intravenous. The data set is classed as ADME, organism-based.
In turn, `CCCn1cnc(C[C@H](OCCN)C(=O)O)c1` had a distribution volume (Vd) of 3.1 L/kg.

Compound `CCCn1cnc(C[C@H](CCCN)C(=O)O)c1` [UK-396,082] gave a Vd of 1.9 L/kg.

System in a further data set: not listed separately
In words: Volume of distribution in human at 10 mg/kg, iv. Type of data set: ADME, organism-based. Further details: dose 10 mg/kg, route intravenous. Conditions: in vivo.
Regarding `CCCn1cnc(C[C@H](CCCN)C(=O)O)c1` [UK-396,082], the Vd was 0.5 L/kg.

For another data set, the target named is T2, Carboxypeptidase B2 (Homo sapiens, UniProt Q96IY4).
T2 sequence (Q96IY4 whole entry): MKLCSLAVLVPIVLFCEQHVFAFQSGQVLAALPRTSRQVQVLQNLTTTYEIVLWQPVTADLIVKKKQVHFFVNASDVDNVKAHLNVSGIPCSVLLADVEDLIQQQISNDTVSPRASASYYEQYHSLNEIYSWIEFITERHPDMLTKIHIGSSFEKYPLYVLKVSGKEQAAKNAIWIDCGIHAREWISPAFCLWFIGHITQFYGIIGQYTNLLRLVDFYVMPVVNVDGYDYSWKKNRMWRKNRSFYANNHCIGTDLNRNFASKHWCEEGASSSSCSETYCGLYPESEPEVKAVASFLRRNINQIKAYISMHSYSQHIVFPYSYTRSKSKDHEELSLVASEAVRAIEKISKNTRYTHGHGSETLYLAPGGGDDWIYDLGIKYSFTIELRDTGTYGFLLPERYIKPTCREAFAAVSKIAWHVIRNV
In words: Inhibition of active form of human recombinant TAFI assessed as substrate turnover every 15 seconds for 30 mins.
Settings: not given
`CCCn1cnc(C[C@H](OCCN)C(=O)O)c1`: the pKi is 8.17.

Regarding `NCCO[C@@H](Cc1cn(-c2ccccc2)cn1)C(=O)O`, the pKi was 8.46.

Regarding `CC(C)(C)c1ccc(-n2cnc(C[C@H](OCCN)C(=O)O)c2)cc1`, the pKi was 8.24.

Turning to `C[C@H](CN)O[C@@H](Cc1cn(-c2ccccn2)cn1)C(=O)O`, the pKi was 8.24.

As to `NCCO[C@@H](Cc1cn(CCC2CCCCC2)cn1)C(=O)O`, the pKi is 8.09.

`Cc1ccccc1-n1cnc(CC(OCCN)C(=O)O)c1` (racemic): the negative logarithm of the Ki (pKi) was 7.19.

For `CCCn1cnc(C[C@H](NCCN)C(=O)O)c1`, the negative logarithm of the Ki (pKi) was 6.82.

Turning to `CCCn1cnc(C[C@@H](OCCN)C(=O)O)c1`, the pKi is under 5.00.

For `C[C@H](CN)O[C@@H](Cc1cn(-c2ccccc2)cn1)C(=O)O`, the negative-log Ki (pKi) was 8.12.

In the case of `CCCn1cnc(CC(OCCNC)C(=O)O)c1` (racemic), the pKi was 6.39.

Regarding `CCCn1cnc(C[C@H](CCCN)C(=O)O)c1` [UK-396,082], the negative logarithm of the Ki (pKi) is 7.80.

Consider `CCCCn1cnc(CC(OCCN)C(=O)O)c1` (racemic), for which the pKi is 7.82.

System in a further data set: not listed separately
Kind of data set: Half life in rat at 5 mg/kg, po. The data set is classed as ADME, organism-based. Further details: dose 5 mg/kg, route oral. Conditions: in vivo.
Regarding `CCCn1cnc(C[C@H](OCCN)C(=O)O)c1`, the half-life is 2.1 h.

In turn, `CCCn1cnc(C[C@H](CCCN)C(=O)O)c1` [UK-396,082] had a half-life of 2.4 h.

System in the next data set: not listed separately
Kind of data set: Half life in rat at 2 mg/kg, iv. Type of data set: ADME, organism-based. On the set-up: dose 2 mg/kg, route intravenous. To be noted: in vivo.
As to `CCCn1cnc(C[C@H](OCCN)C(=O)O)c1`, the half-life was 2.7 h.

Compound `CCCn1cnc(C[C@H](CCCN)C(=O)O)c1` [UK-396,082] showed a half-life of 2.1 h.

The test system of a further data set is Plasma. Kind of data set: Plasma protein binding in rat. The data set is classed as ADME, cell-free.
Settings: not given
In turn, `CCCn1cnc(C[C@H](OCCN)C(=O)O)c1` had a PPB of 0%.

As for `CCCn1cnc(C[C@H](CCCN)C(=O)O)c1` [UK-396,082], the PPB is given as 0%.
